Results on 2 compounds are retold here after patent US12102682B1, “Injectable photothermal hydrogel based on melanin, preparation method, and application thereof” (OCEAN UNIVERSITY OF CHINA, priority 2023, dated 2024).

Counter-ions that a name gives are not always drawn.

The series is described as follows: Body weight, organ index and HE histopathology of treated mice. The class given is in vivo. The note with it: for Change in body weight: tumor-bearing mice, intratumoral injection, 14 days, DOX 5 mg/kg, ICG 1 mg/kg, LASER groups 808 nm 1 W/cm^2 5 min. As for the experimental part:
Thirty female mice were randomly divided into 6 groups with 5 mice per group: (1) a saline group: injection of saline only; (2) a DOX group (5 mg/kg): injection of DOX; (3) a GEL/LASER group: a combined effect of the HPCS/MP hydrogel and NIR light irradiation; (4) a GEL/DOX (5 mg/kg) group: an effect of the HPCS/MP hydrogel encapsulating DOX·HCL; (5) a GEL/DOX (5 mg/kg)/LASER group: a combined effect of HPCS/MP hydrogel encapsulating DOX·HCL and NIR light irradiation, and (6) an indocyanine green (ICG) (1 mg/kg) group: injection of ICG. The different groups of mice were injected with 100 μL of saline, DOX, ICG, an HPCS/MP hydrogel precursor solution, and a GEL/DOX hydrogel precursor solution by intratumoral injection.
In the laser irradiation group LASER was irradiated for 5 min using an laser of 808 nm at a power of 1 W/cm^2 on days 2, 4, 6, 8, 10, and 12 after drug administration, and an irradiated site was a tumor site visible to naked eyes, with a light source positioned 5 cm from a body surface. The date of irradiation was designated as day 1, and an observation period extended to 14 days. A tumor volume was measured with a vernier caliper and a weight of the mice was weighed using an electronic balance every two days, and then a curve of the tumor volume, the body weight, and time was plotted. On the 14th day, the mice were euthanized, and axillary tumor bodies and tissues of the heart, liver, spleen, lung, and kidney of the mice were collected. The weights of the tumors and organ tissues of the various groups were accurately measured and recorded to calculate a tumor inhibition rate and an organ index of each group. Then immunohistochemistry and HE staining were performed for pathological analysis.

In the case of `COc1cccc2c1C(=O)c1c(O)c3c(c(O)c1C2=O)C[C@@](O)(C(=O)CO)C[C@@H]3O[C@H]1C[C@H](N)[C@H](O)[C@H](C)O1` [DOX, doxorubicin hydrochloride], the “Change in body weight” value was “significant downward trend in the body weight”. Further, for the setting “mice, 14th day”, the “HE staining of liver sections compared with control group” value was “very loose”, the “HE staining of lung tissues” value was “some degree of damage”, the “HE staining of renal tissue sections” value is on record as “some slight damage” and the “HE staining of spleen tissues compared with control group” value was “tissues became loose”. Further, for the setting “mice, 14th day”, the “Liver index compared to control group” value is listed as “significantly reduced”.
On to `CC1(C)C(/C=C/C=C/C=C/C=C2\N(CCCCS(=O)(=O)O)c3ccc4ccccc4c3C2(C)C)=[N+](CCCCS(=O)(=O)[O-])c2ccc3ccccc3c21` [ICG, indocyanine green], for which the “Change in body weight” value is reported as “decrease trend in the body weight”. For the same compound, the “HE staining of liver sections compared with control group” value (mice, 14th day) is “slight loosening”.
